From US9403797B2, “5-(pyridin-2-yl-amino)-pyrazine-2-carbonitrile compounds and their therapeutic use” (Cancer Research Technology Limited, priority 2011, dated 2016)
Like-named read-outs stand apart in the source and are kept apart here.

Key:
[1] = system: HT29 human colon carcinoma xenograft; assay: In Vivo Study 2: combination with gemcitabine in HT29 human colon carcinoma xenograft; parameters: species or system mouse; conditions: for Tumour growth inhibition relative to controls / T/C vs. vehicle controls: day 24; for T/C vs. vehicle controls: tumour volumes; for Mean tumour volume (cm^3, mean ± SEM): day 24 after start of therapy, PAPC-A-01 75 mg/kg p.o., gemcitabine 100 mg/kg i.v.
Method: In Vivo Study 2: PAPC-A-01 in Combination with Gemcitabine in HT29 Human Colon Carcinoma Xenograft
Animals weighed 20.3±2.0 g at the start of the study. Handing and all experimental procedures were performed under sterile conditions in laminar flow hoods in accordance with UK Home Office, national and local ethical guidelines.
HT29 colon carcinoma cells from the American Type Culture Collection (ATCC, LGC Promochem, Middesex, UK) were harvested from tissue culture flasks and injected subcutaneously in the right flanks of mice (3 million cells per site). Once tumours were established (mean diameter 0.55±0.05 cm) mice were randomised to treatment groups (n=6) to receive (a) test compound (PAPC-A-01) (75 mg/kg), (b) gemcitabine (100 mg/kg), (c) a combination (PAPC-A-01) (75 mg/kg) and gemcitabine (100 mg/kg), or (d) relevant vehicles.
Clinical grade gemcitabine hydrochloride (GEMZAR, Eli Lilly, Newmarket, UK) was reconstituted in sterile 0.9% sodium chloride and aliquots frozen at −20° C. Gemcitabine was administered intravenously once weekly via a lateral tail vein on days 0 (day 5 after tumour cell implantation), 7 and 14. Test compound (PAPC-A-01) was dissolved in 10% DMSO and diluted out in 5% Tween 20, 85% saline. Test compound (PAPC-A-01) was administered by oral gavage on days 1, 2, 8, 9, 15 and 16. The control animals received both vehicles by the appropriate route on the designated days. The compounds were administered in a volume of 100 μL per 10 g body weight.
Animals were observed daily and body weights and tumours measured three times weekly. Two perpendicular tumour diameters were used to calculate volumes using the formula: V=4/3π[(d1+d2)/4]^3.
T/C values (volumes of treated tumours vs. controls) were calculated with respect to vehicle control tumours or those treated with gemcitabine alone, expressed as a percentage.

[2] = target: CHK1 (Homo sapiens (Human), UniProt O14757); assay: Inhibitor potency vs. CHK1 (Assay 1A DELFIA or Assay 1B Caliper format); format: biochemical
Sequence of CHK1 (O14757 whole entry): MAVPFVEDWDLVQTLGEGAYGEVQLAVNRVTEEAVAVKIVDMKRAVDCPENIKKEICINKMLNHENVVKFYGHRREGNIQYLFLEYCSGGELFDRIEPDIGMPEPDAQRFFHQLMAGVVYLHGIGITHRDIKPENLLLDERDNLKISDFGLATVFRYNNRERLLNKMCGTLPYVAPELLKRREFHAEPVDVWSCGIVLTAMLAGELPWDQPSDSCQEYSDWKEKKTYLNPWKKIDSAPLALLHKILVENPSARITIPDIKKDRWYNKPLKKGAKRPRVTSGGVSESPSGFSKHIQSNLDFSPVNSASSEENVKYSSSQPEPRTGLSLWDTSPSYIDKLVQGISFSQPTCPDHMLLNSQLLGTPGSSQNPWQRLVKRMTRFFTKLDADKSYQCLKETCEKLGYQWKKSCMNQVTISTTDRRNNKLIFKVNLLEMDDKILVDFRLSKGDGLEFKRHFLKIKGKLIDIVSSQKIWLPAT
Method: Assay 1A: Determination of Inhibitor Potency vs. CHK1 in DELFIA Assay Format
CHK1 kinase function was measured in a DELFIA® assay in order to monitor phosphorylation of a CDC25C peptide using a specific phospho antibody. […] The reaction mixture was incubated for 30 minutes at room temperature and then stopped by the addition of buffer (125 μL) containing 40 mM EDTA, 0.05% Tween 20, 0.1% BSA in TBS (10× concentrate, Sigma). An aliquot (100 μL) of the stopped reaction mixture was transferred to a black neutravidin-coated plate (Perbio) and incubated for 1 hour on a shaker (Titertek, Flow Laboratories) at room temperature. […] The plates were washed a further four times with wash buffer before the addition of enhancement solution (100 μL/well, PerkinElmer Life Sciences).
Assay 1B: Determination of Inhibitor Potency Vs. CHK1 in Caliper Assay Format
CHK1 kinase activity was measured in a microfluidic assay that monitors the separation of a phosphorylated product from its substrate. […] For each test compound a 50 μM stock concentration in 100% DMSO was used. […] The plate was sealed and centrifuged (1 minutes, 1000 rpm) before incubation for one hour at room temperature. The reaction was stopped by the addition of separation buffer (90 μL). […] IC50 values were calculated in GraphPad Prism5 using a non linear regression fit of the log (inhibitor) vs. response with variable slope equation.

[3] = target: CHK2 (Homo sapiens (Human), UniProt O96017); assay: Inhibitor selectivity for inhibition of CHK1 vs. CHK2 (Assay 2, CHK2 DELFIA assay); format: biochemical; conditions: CHK2 IC50/CHK1 IC50
Sequence of CHK2 (O96017 whole entry): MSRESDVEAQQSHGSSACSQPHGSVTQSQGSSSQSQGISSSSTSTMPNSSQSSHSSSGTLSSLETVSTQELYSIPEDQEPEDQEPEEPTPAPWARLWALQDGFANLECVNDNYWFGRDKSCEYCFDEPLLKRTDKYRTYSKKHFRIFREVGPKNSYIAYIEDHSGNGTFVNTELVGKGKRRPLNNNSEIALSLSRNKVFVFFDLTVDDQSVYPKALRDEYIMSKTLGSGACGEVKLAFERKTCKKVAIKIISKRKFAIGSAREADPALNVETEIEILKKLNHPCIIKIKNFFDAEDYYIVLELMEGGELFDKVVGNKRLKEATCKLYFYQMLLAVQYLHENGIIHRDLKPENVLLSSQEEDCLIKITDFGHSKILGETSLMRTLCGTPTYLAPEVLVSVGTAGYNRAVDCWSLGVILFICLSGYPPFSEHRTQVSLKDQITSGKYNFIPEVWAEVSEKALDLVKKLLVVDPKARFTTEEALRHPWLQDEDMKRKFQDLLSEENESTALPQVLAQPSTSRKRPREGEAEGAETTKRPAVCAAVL
Method: The plates were washed a further four times with wash buffer before the addition of enhancement solution (100 μL/well, PerkinElmer Life Sciences).

[4] = system: TH-MYCN neuroblastoma; assay: In Vivo Study 1: transgenic MYCN-driven neuroblastoma model; parameters: species or system mouse
Method: In Vivo Study 1: PAPC-A-01 in Transgenic MYCN-Driven Neuroblastoma Model
Spontaneous neuroblastomas arising in hemizygous mice transgenic for TH-MYCN (human MYCN under the control of the rat tyrosine hydroxylase promoter) were detected by abdominal palpation. Sequential animals with well-established tumours (30-70 days of age) were randomised to receive either test compound (PAPC-A-01) or vehicle until 8-9 mice per group were accrued. The test compound (PAPC-A-01) was administered as a single agent at 100 mg/kg p.o. daily for 7 consecutive days by oral gavage (100 μL/10 g body weight) and controls received an equivalent volume of vehicle (10% DMSO, 5% Tween 20, 85% saline). Neuroblastoma size was assessed by MRI and by the mass of tumours dissected from the abdominal cavity at the end of therapy.
^1H MRI was performed on a 7T Bruker horizontal bore microimaging system (Bruker Instruments, Ettlingen, Germany) using a 3 cm birdcage coil. Anaesthesia was induced a combination of fentanyl citrate (0.315 mg/mL) plus fluanisone (10 mg/mL) (Hypnorm, Janssen Pharmaceutical, Oxford, UK) and midazolam (5 mg/mL) (Roche, Welwyn Garden City, UK) and water (1:1:2). Animal body temperature was maintained by a warm air blower through the magnet bore.
Anatomical T2-weighted coronal and transverse images were acquired from twenty contiguous 1 mm-thick coronal slices through the mouse abdomen, using a rapid acquisition with refocused echoes (RARE) sequence with 4 averages of 128 phase encoding steps over a 3×3 cm field of view, two echoes of 36 and 132 ms, a TR of 4.5 s and a RARE factor of 8. Following MRI, the mice were left to recover on a heat mat for 24 hours. Tumour volumes were measured using segmentation from regions of interest drawn on every slice from the coronal T2 weighted images containing tumour using in-house software (ImageView, working under IDL, ITT, Boulder, Colo., USA).

[5] = in vivo; conditions: female, BALB/c, mouse, Oral bioavail. (plasma concentration, 1 hour following 10 mg/kg p.o.)
[6] = system: HT29 cells; assay: Mitosis Inhibition Assay (MIA), checkpoint abrogation; conditions: Homo sapiens, HT-29, read-out: MIA IC50
[7] = Comparative oral bioavailability by limited sampling in vivo pharmacokinetics; conditions: female, BALB/c, mouse, plasma, 10 mg/kg, Oral bioavail. (plasma concentration, 1 hour following 10 mg/kg p.o.), female BALB/c mice, expressed relative to 10 mg/kg p.o.
[8] = Assay 1A (DELFIA) or Assay 1B (Caliper), read-out: CHK1 IC50

For Nc1ccn([C@@H]2O[C@H](CO)[C@@H](O)C2(F)F)c(=O)n1 [Gemcitabine, reference compound], the “Tumour growth inhibition relative to controls” value [1] was “approximately 20%”, the “T/C vs. vehicle controls” value [1] was 80.8% and the “Mean tumour volume (cm^3, mean ± SEM)” value [1] was 0.888 ± 0.188 cm^3.
For COc1cc(Nc2cnc(C#N)c(O[C@H](C)CN(C)C)n2)ncc1-c1cnn(C)c1 [PAPC-A-01, (R)-3-((1-(Dimethylamino)propan-2-yl)oxy)-5-((4-methoxy-5-(1-methyl-1H-pyrazol-4-yl)pyridin-2-yl)amino)pyrazine-2-carbonitrile], the IC50 [2] was under 20 nM, the IC50 [2, 8] was 6 nM and the “CHK1 vs. CHK2 selectivity” value [3] was 540-fold. The “T/C (tumour weight)” value ([4]; 100 mg/kg p.o. daily for 7 days) was 13.4%, the “MR imaging in individual mice, pre-treatment and on day 7” value ([4]; 7 day treatment period, 100 mg/kg p.o. daily) was “tumour regression” and the “Mean weight of tumours at the end of the study” value ([4]; mean±SD, 100 mg/kg p.o. daily for 7 days, control 2.1±0.7 g) was 0.3 ± 0.2 g. The “Tumour volume (MRI)” value ([4]; one mouse, following 7 days treatment, 100 mg/kg p.o. daily, pre-treatment volume 1960 mm^3) was 417 mm^3, the “Tumour growth inhibition relative to controls” value [1] was “no growth inhibition” and the “T/C vs. vehicle controls” value [1] was 101.4%. For the same compound, the “Mean tumour volume (cm^3, mean ± SEM)” value [1] was 1.114 ± 0.257 cm^3.
Compound C[C@H](CN(C)C)Oc1nc(Nc2cc(N(C)C)c(-c3cnn(C)c3)cn2)cnc1C#N [PAPC-A-03, (R)-5-((4-(Dimethylamino)-5-(1-methyl-1H-pyrazol-4-yl)pyridin-2-yl)amino)-3-((1-(dimethylamino)propan-2-yl)oxy)pyrazine-2-carbonitrile] has an IC50 [2, 8] of under 20 nM.
CNc1cc(Nc2cnc(C#N)c(O[C@H](C)CN(C)C)n2)ncc1C#CC(C)(C)O [PAPC-A-08, (R)-3-((1-(Dimethylamino)propan-2-yl)oxy)-5-((5-(3-hydroxy-3-methylbut-1-yn-1-yl)-4-(methylamino)pyridin-2-yl)amino)pyrazine-2-carbonitrile] showed an IC50 [2] of under 20 nM.
In the case of CNc1cc(Nc2cnc(C#N)c(O[C@H](C)CN(C)C)n2)ncc1C1CC1 [PAPC-A-09, (R)-5-((5-Cyclopropyl-4-(methylamino)pyridin-2-yl)amino)-3-((1-(dimethylamino)propan-2-yl)oxy)pyrazine-2-carbonitrile], the concentration at 1 h [5] is reported as at least 10 nM.
Compound CNc1cc(Nc2cnc(C#N)c(O[C@H](C)CN(C)C)n2)ncc1C(=O)OC [PAPC-A-10, (R)-Methyl 6-((5-cyano-6-((1-(dimethylamino)propan-2-yl)oxy)pyrazin-2-yl)amino)-4-(methylamino)nicotinate] has an IC50 [2] of under 20 nM.
Compound COc1cc(Nc2cnc(C#N)c(O[C@@H]3CCNC3)n2)ncc1-c1cnn(C)c1 [PAPC-B-01, (R)-5-((4-Methoxy-5-(1-methyl-1H-pyrazol-4yl)pyridin-2-yl)amino)-3-(pyrrolidin-3-yloxy)pyrazine-2-carbonitrile] has an IC50 [2] of under 20 nM.
COc1cc(Nc2cnc(C#N)c(O[C@@H]3CCN(C)C3)n2)ncc1-c1cnn(C)c1 [PAPC-B-02, (R)-5-((4-Methoxy-5-(1-methyl-1H-pyrazol-4-yl)pyridin-2-yl)amino)-3-((1-methylpyrrolidin-3-yl)oxy)pyrazine-2-carbonitrile] gave an IC50 [2] of under 20 nM.
CNc1cc(Nc2cnc(C#N)c(O[C@@H]3CCNC3)n2)ncc1-c1cnn(C)c1 [PAPC-B-03, (R)-5-((5-(1-Methyl-1H-pyrazol-4-yl)-4-(methylamino)pyridin-2-yl)amino)-3-(pyrrolidin-3-yloxy)pyrazine-2-carbonitrile] gave an IC50 [6] of under 500 nM.
For CNc1cc(Nc2cnc(C#N)c(O[C@H]3CCNC3)n2)ncc1-c1cnn(C)c1 [PAPC-B-04, (S)-5-((5-(1-Methyl-1H-pyrazol-4-yl)-4-(methylamino)pyridin-2-yl)amino)-3-(pyrrolidin-3-yloxy)pyrazine-2-carbonitrile], the IC50 [6] was under 500 nM.
With CNc1cc(Nc2cnc(C#N)c(O[C@@H]3CCN(C)C3)n2)ncc1-c1cnn(C)c1 [PAPC-B-05, (R)-5-((5-(1-Methyl-1H-pyrazol-4-yl)-4-(methylamino)pyridin-2-yl)amino)-3-((1-methylpyrrolidin-3-yl)oxy)pyrazine-2-carbonitrile] the IC50 [2] was under 20 nM.
With CNc1cc(Nc2cnc(C#N)c(O[C@H]3CCN(C)C3)n2)ncc1-c1cnn(C)c1 [PAPC-B-06, (S)-5-((5-(1-Methyl-1H-pyrazol-4-yl)-4-(methylamino)pyridin-2-yl)amino)-3-((1-methylpyrrolidin-3-yl)oxy)pyrazine-2-carbonitrile] the IC50 [2] was under 20 nM and the concentration at 1 h [5] was at least 10 nM.
With CNc1cc(Nc2cnc(C#N)c(O[C@@H]3CCNC3)n2)ncc1C#CC(C)(C)O [PAPC-B-08, (R)-5-((5-(3-Hydroxy-3-methylbut-1-yn-1-yl)-4-(methylamino)pyridin-2-yl)amino)-3-(pyrrolidin-3-yloxy)pyrazine-2-carbonitrile] the IC50 [2, 8] was under 20 nM and the concentration at 1 h [7] was at least 10 nM.
With COC(=O)c1cnc(Nc2cnc(C#N)c(O[C@@H]3CCNC3)n2)cc1N(C)C [PAPC-B-11, (R)-Methyl 6-((5-cyano-6-(pyrrolidin-3-yloxy)pyrazin-2-yl)amino)-4-(dimethylamino)nicotinate] the IC50 [2] was under 20 nM.
